In assay [1] the test system is Tyrosinase derived from mushroom. Kind of assay: tyrosinase activity inhibition. It counts as biochemical. To be noted: control agents. The protocol: The above aqueous colloid (conc) of the present invention as a basic material, and ascorbic acid and hydroquinone as control agents were used. Tyrosinase used that derived from mushroom (from Sigma Co., Ltd.: 2,500 U/mg). Specifically, for testing an inhibiting effect against tyrosinase activity, 4 kinds of solutions were prepared. (1) a tyrosine solution (0.5 mg/ml); 0.5 ml loading, (2) a 1/15 M phosphate buffer (pH 6.8); 2.0 ml loading, (3) a tyrosine solution (6.0 mg/100 ml); 0.5 ml loading, and (4) a test solution: the nanocolloid particle and/or the aqueous colloid of the present invention, ascorbic acid, or hydroquinone (0.005, 0.01, 0.05, 0.1, 0.5 mg) dissolved in buffer; 2.0 ml loading. The solutions of (1) to (4) were mixed to incubate at 37° C. for one hour, followed by the measurement of absorbance (At) at 475 nm. In addition, the absorbance obtained by adding the phosphate buffer (2 ml) in place of each test solution to carry out the same operation (Ab) was used as control to determine an inhibition rate. The inhibition rate was calculated from the resultant Ab and At values using the formula: inhibition rate=(Ab−At)/Ab×100.

Assay [2] has as its system writhing reaction induced by acetic acid in mice. Kind of assay: acetic acid-induced writhing reaction. Format: in vivo. The settings on record: count over 10 minutes from 10 minutes after 0.7% acetic acid i.p.; s.c. 30 minutes before: aspirin 300 mg/kg, colloid 0.1 ml/10 g. The source says:
Then, an analgesic effect of the aqueous colloid of the present invention in mice was studied using a writhing reaction induced by acetic acid. In the observation of the behavior of twisting in response e.g. to a pain due to acetic acid irritation in the peritoneal cavity (writhing), when the administration of an agent suppresses the writhing reaction, the agent can be said to have depressed pseudo affective response, assessing it as having an anti-nociceptive effect. 1) ddy strain male mice (7-week old; 27 to 38 g; 6 mice per group); 2) drug solution: aspirin in 0.1 M Tris-Hydrochloride buffer as a solvent (pH 7.8); […] 4) the aqueous colloid of the present invention: 100 ml of the nanocolloid of the present invention to which 0.9 g of sodium chloride was added to make an isotonicsolution. 1) dividing mice into 3 groups to subcutaneously administer, to an aspirin (300 mg/kg) treatment group, the aspirin solution, the Tris-Hydrochloride buffer to a control group, and the aqueous nanocolloid (0.1 ml/10 g) to the remaining group; […] 3) starting to count the frequency of writhing 10 minutes after the administration of the acetic acid and recording a frequency of writhing during a period of 10 minutes. (See FIG. 10)
(In general: In writhing tests, fewer writhes than in controls are read as antinociception.)

Regarding `Oc1ccc(O)cc1` [hydroquinone], the tyrosinase activity entry in assay [1] is reported as “inhibited the tyrosinase activity”.
Consider `CC(=O)Oc1ccccc1C(=O)O` [aspirin], for which, in assay [2], the frequency of writhing came to 10.5±1.2.
On to `O=C1O[C@H]([C@@H](O)CO)C(O)=C1O` [ascorbic acid], for which the tyrosinase activity entry in assay [1] is “inhibited the tyrosinase activity”.

For the origin of these results see patent publication US20060134097A1, “Process for production of aqueous colloid of graphite silica particles emitting far-infrared rays” (priority 2004, published 2006).
